# From the supplement of paper PMC4862054
# Test system: HCC1143
# Experiment: normalised response (% of control), CellTox Green; higher = less cell death (100 = DMSO, 0 = benzethonium chloride kill control)
# Conditions: incubation time: 72 h
# Summary of the method: (§1)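 Breast cancer cell lines in 20 µl suspension were added to 384-well plates containing compound at 5 concentrations, spaced in 10-fold steps across a 10,000-fold range chosen for each compound, and incubated for 72 h. CellTox Green fluorescence was read at 485/520 nm, followed by CellTiter-Glo luminescence after 10 min at room temperature. Signals on each plate were normalised so that 0.1 % DMSO equals 100 and a positive kill control equals 0. Every value in the table is the normalised signal at one concentration of the series.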
row,Compound,normalised response
1,CC[C@@]1(O)C(=O)OCc2c1cc1n(c2=O)Cc2cc3c(CN(C)C)c(O)ccc3nc2-1 [Topotecan] (100 nM),74.7%

# Test system: HCC1599
# Experiment: as above
# Conditions: incubation time: 72 h
# Summary of the method: as §1
row,Compound,normalised response
1,COc1ccc(-c2cc3c(C)nc(N)nc3n([C@H]3CC[C@H](OCCO)CC3)c2=O)cn1 (1000 nM),90.4%
2,COc1ccc(-c2cc3c(C)nc(N)nc3n([C@H]3CC[C@H](OCCO)CC3)c2=O)cn1 (10000 nM),92.1%
3,O=C(Nc1c[nH]nc1-c1nc2ccc(CN3CCOCC3)cc2[nH]1)NC1CC1 [AT9283] (1000 nM),105%
4,COc1cc(CCc2cc(NC(=O)c3ccc(N4CC(C)NC(C)C4)cc3)n[nH]2)cc(OC)c1 (stereo not given) [AZD4547] (100 nM),90.6%
5,CO[C@@H](C(=O)N1Cc2[nH]nc(NC(=O)c3ccc(N4CCN(C)CC4)cc3)c2C1)c1ccccc1 [Danusertib] (1000 nM),104%
6,Cc1nc(Nc2ncc(C(=O)Nc3c(C)cccc3Cl)s2)cc(N2CCN(CCO)CC2)n1 [Dasatinib] (100 nM),95.6%
7,Cc1nc(Nc2ncc(C(=O)Nc3c(C)cccc3Cl)s2)cc(N2CCN(CCO)CC2)n1 [Dasatinib] (1000 nM),102%
8,Cc1c(CN2CCN(C(=O)[C@H](C)O)CC2)sc2c(N3CCOCC3)nc(-c3cnc(N)nc3)nc12 [GDC-0980] (1000 nM),99.9%
9,Cc1c(CN2CCN(C(=O)[C@H](C)O)CC2)sc2c(N3CCOCC3)nc(-c3cnc(N)nc3)nc12 [GDC-0980] (10000 nM),96.9%
10,C[C@]12O[C@H](C[C@]1(O)CO)n1c3ccccc3c3c4c(c5c6ccccc6n2c5c31)CNC4=O [Lestaurtinib] (100 nM),74.8%
11,C[C@]12O[C@H](C[C@]1(O)CO)n1c3ccccc3c3c4c(c5c6ccccc6n2c5c31)CNC4=O [Lestaurtinib] (1000 nM),57.5%
12,O=C1c2c(O)ccc(O)c2C(=O)c2c(NCCNCCO)ccc(NCCNCCO)c21 [Mitoxantrone] (100 nM),91%
13,O=C1c2c(O)ccc(O)c2C(=O)c2c(NCCNCCO)ccc(NCCNCCO)c21 [Mitoxantrone] (1000 nM),112%
14,Nc1ccccc1NC(=O)c1ccc(CNc2nccc(-c3cccnc3)n2)cc1 [Mocetinostat] (10000 nM),73.8%
15,COc1nc(N)nc2c1ncn2[C@@H]1O[C@H](CO)[C@@H](O)[C@@H]1O [Nelarabine] (10000 nM),96.5%
16,Cc1ccc(Nc2nccc(N(C)c3ccc4c(C)n(C)nc4c3)n2)cc1S(N)(=O)=O [Pazopanib] (1000 nM),105%
17,Cc1ccc(Nc2nccc(N(C)c3ccc4c(C)n(C)nc4c3)n2)cc1S(N)(=O)=O [Pazopanib] (10000 nM),100%
18,C[C@]12C=CC(=O)C=C1CC[C@@H]1[C@@H]2[C@@H](O)C[C@@]2(C)[C@H]1CC[C@]2(O)C(=O)CO [Prednisolone] (10000 nM),97.9%
19,CNC(=O)c1cc(Oc2ccc(NC(=O)Nc3ccc(Cl)c(C(F)(F)F)c3)cc2)ccn1 [Sorafenib] (100 nM),93.7%
20,CNC(=O)c1cc(Oc2ccc(NC(=O)Nc3ccc(Cl)c(C(F)(F)F)c3)cc2)ccn1 [Sorafenib] (1000 nM),97.5%
21,CCN(CC)CCNC(=O)c1c(C)[nH]c(/C=C2\C(=O)Nc3ccc(F)cc32)c1C [Sunitinib] (100 nM),106%
22,CCN(CC)CCNC(=O)c1c(C)[nH]c(/C=C2\C(=O)Nc3ccc(F)cc32)c1C [Sunitinib] (1000 nM),105%
23,CC[C@@]1(O)C(=O)OCc2c1cc1n(c2=O)Cc2cc3c(CN(C)C)c(O)ccc3nc2-1 [Topotecan] (100 nM),90.7%

# Test system: HCC1937
# Experiment: as above
# Conditions: incubation time: 72 h
# Summary of the method: as §1
row,Compound,normalised response
1,COc1ccc(-c2cc3c(C)nc(N)nc3n([C@H]3CC[C@H](OCCO)CC3)c2=O)cn1 (1000 nM),-51.2%
2,COc1ccc(-c2cc3c(C)nc(N)nc3n([C@H]3CC[C@H](OCCO)CC3)c2=O)cn1 (10000 nM),41.4%
3,O=C(Nc1c[nH]nc1-c1nc2ccc(CN3CCOCC3)cc2[nH]1)NC1CC1 [AT9283] (1000 nM),116%
4,COc1cc(CCc2cc(NC(=O)c3ccc(N4CC(C)NC(C)C4)cc3)n[nH]2)cc(OC)c1 (stereo not given) [AZD4547] (100 nM),113%
5,CO[C@@H](C(=O)N1Cc2[nH]nc(NC(=O)c3ccc(N4CCN(C)CC4)cc3)c2C1)c1ccccc1 [Danusertib] (1000 nM),129%
6,Cc1nc(Nc2ncc(C(=O)Nc3c(C)cccc3Cl)s2)cc(N2CCN(CCO)CC2)n1 [Dasatinib] (100 nM),5.95%
7,Cc1nc(Nc2ncc(C(=O)Nc3c(C)cccc3Cl)s2)cc(N2CCN(CCO)CC2)n1 [Dasatinib] (1000 nM),91.4%
8,Cc1c(CN2CCN(C(=O)[C@H](C)O)CC2)sc2c(N3CCOCC3)nc(-c3cnc(N)nc3)nc12 [GDC-0980] (1000 nM),107%
9,Cc1c(CN2CCN(C(=O)[C@H](C)O)CC2)sc2c(N3CCOCC3)nc(-c3cnc(N)nc3)nc12 [GDC-0980] (10000 nM),101%
10,C[C@]12O[C@H](C[C@]1(O)CO)n1c3ccccc3c3c4c(c5c6ccccc6n2c5c31)CNC4=O [Lestaurtinib] (100 nM),81.8%
11,C[C@]12O[C@H](C[C@]1(O)CO)n1c3ccccc3c3c4c(c5c6ccccc6n2c5c31)CNC4=O [Lestaurtinib] (1000 nM),89.6%
12,O=C1c2c(O)ccc(O)c2C(=O)c2c(NCCNCCO)ccc(NCCNCCO)c21 [Mitoxantrone] (100 nM),117%
13,O=C1c2c(O)ccc(O)c2C(=O)c2c(NCCNCCO)ccc(NCCNCCO)c21 [Mitoxantrone] (1000 nM),117%
14,Nc1ccccc1NC(=O)c1ccc(CNc2nccc(-c3cccnc3)n2)cc1 [Mocetinostat] (10000 nM),69.9%
15,COc1nc(N)nc2c1ncn2[C@@H]1O[C@H](CO)[C@@H](O)[C@@H]1O [Nelarabine] (10000 nM),94.5%
16,Cc1ccc(Nc2nccc(N(C)c3ccc4c(C)n(C)nc4c3)n2)cc1S(N)(=O)=O [Pazopanib] (1000 nM),101%
17,Cc1ccc(Nc2nccc(N(C)c3ccc4c(C)n(C)nc4c3)n2)cc1S(N)(=O)=O [Pazopanib] (10000 nM),85.7%
18,C[C@]12C=CC(=O)C=C1CC[C@@H]1[C@@H]2[C@@H](O)C[C@@]2(C)[C@H]1CC[C@]2(O)C(=O)CO [Prednisolone] (10000 nM),56.3%
19,CNC(=O)c1cc(Oc2ccc(NC(=O)Nc3ccc(Cl)c(C(F)(F)F)c3)cc2)ccn1 [Sorafenib] (100 nM),92%
20,CNC(=O)c1cc(Oc2ccc(NC(=O)Nc3ccc(Cl)c(C(F)(F)F)c3)cc2)ccn1 [Sorafenib] (1000 nM),99.2%
21,CCN(CC)CCNC(=O)c1c(C)[nH]c(/C=C2\C(=O)Nc3ccc(F)cc32)c1C [Sunitinib] (100 nM),114%
